# Legend:
# human αvβ3 integrin = human αvβ3 integrin (Homo sapiens, UniProt P05106+P06756); experiment: ELISA-like solid-phase integrin binding assay
# human α5β1 integrin = human α5β1 integrin (Homo sapiens, UniProt P05556+P08648); experiment: ELISA-like solid-phase integrin binding assay
# Chain of human α5β1 integrin (P08648 42-995 limits assumed): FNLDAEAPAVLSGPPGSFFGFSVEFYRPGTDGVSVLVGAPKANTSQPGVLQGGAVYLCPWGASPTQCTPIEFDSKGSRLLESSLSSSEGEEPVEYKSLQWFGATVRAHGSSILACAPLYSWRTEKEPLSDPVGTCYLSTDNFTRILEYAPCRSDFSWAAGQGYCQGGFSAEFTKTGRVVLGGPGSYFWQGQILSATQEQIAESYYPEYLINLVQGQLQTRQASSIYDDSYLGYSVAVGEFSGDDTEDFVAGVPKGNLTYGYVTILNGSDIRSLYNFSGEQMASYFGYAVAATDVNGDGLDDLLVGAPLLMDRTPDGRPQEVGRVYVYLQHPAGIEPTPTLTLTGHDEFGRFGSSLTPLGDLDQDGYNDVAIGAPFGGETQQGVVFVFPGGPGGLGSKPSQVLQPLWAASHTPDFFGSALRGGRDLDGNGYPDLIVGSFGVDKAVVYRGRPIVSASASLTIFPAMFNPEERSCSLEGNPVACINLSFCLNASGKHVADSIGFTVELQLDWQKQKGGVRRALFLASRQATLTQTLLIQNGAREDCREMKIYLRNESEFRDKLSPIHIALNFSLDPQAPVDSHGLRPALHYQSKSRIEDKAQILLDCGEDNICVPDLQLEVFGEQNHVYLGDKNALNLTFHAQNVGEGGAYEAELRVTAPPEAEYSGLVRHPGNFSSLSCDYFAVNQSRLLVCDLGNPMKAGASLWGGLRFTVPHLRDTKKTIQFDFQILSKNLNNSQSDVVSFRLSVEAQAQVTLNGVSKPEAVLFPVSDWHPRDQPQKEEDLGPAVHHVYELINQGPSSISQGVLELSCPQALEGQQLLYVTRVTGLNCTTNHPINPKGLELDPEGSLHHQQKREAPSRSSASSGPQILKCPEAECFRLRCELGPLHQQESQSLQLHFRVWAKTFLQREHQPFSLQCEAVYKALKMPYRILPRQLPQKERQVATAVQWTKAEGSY
# Chain of human α5β1 integrin (P05556 21-728 limits assumed): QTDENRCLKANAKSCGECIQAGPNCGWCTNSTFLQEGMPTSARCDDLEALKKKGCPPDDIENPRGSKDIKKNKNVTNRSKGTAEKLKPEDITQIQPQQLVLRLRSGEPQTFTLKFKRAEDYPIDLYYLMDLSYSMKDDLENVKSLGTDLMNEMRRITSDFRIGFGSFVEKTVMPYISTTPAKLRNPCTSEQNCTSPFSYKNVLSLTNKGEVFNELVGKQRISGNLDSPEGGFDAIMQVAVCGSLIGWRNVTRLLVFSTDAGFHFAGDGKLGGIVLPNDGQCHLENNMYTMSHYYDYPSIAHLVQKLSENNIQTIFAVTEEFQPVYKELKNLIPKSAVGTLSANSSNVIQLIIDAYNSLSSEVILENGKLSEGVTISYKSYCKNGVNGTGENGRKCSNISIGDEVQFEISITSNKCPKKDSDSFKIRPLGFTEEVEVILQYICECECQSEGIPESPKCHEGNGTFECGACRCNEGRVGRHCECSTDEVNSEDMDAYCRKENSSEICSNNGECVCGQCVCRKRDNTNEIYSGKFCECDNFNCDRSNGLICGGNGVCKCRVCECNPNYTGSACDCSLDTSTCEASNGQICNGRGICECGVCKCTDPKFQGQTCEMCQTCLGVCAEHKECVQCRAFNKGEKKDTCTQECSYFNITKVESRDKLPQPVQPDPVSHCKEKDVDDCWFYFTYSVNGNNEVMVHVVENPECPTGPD
# Chain of human αvβ3 integrin (P06756 31-992 limits assumed): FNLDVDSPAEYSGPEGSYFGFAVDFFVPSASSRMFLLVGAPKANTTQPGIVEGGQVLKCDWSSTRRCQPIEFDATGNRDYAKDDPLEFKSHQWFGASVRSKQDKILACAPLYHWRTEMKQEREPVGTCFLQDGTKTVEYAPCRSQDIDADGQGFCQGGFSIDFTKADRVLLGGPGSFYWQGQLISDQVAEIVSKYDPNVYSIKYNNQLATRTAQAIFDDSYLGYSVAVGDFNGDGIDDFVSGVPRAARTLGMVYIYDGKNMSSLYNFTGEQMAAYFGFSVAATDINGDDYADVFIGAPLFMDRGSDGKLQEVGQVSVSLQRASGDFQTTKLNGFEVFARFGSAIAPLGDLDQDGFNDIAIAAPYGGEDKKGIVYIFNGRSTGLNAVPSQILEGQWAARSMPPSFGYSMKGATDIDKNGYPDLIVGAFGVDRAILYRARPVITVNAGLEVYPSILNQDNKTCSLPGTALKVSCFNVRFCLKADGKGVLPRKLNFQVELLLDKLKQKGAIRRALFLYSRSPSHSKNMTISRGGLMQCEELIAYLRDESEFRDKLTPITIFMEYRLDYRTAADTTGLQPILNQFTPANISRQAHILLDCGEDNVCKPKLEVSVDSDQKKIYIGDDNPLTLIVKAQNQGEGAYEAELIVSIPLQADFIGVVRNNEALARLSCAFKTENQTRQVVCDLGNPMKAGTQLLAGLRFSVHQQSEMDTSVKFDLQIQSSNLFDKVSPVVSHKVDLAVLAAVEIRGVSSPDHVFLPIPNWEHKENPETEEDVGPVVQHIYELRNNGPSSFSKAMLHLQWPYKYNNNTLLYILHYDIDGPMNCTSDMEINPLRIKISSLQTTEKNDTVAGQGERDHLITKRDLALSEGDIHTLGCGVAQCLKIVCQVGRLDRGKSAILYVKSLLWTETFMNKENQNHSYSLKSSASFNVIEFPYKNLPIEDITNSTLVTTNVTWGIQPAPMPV
# Chain of human αvβ3 integrin (P05106 27-718 limits assumed): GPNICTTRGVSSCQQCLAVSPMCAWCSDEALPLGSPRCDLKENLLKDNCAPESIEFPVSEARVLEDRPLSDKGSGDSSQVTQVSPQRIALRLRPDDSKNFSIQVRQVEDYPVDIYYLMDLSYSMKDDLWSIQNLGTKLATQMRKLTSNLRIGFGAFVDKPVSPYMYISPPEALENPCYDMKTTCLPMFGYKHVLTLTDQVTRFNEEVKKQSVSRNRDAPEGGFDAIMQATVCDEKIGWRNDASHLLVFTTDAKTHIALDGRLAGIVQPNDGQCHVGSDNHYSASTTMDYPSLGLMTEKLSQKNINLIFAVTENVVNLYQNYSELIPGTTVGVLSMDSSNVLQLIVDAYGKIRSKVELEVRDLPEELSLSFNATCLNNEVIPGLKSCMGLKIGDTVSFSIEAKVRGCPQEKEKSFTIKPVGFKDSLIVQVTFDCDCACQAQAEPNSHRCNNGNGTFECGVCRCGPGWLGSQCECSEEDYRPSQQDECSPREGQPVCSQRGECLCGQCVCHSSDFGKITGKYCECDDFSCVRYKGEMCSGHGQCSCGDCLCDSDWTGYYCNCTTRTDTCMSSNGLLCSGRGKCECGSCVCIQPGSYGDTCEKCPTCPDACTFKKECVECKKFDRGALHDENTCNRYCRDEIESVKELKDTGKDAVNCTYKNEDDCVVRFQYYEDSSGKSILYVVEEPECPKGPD
Molecule,IC50 (human αvβ3 integrin),IC50 (human α5β1 integrin),decrease in the affinities compared to their unmethylated analogues (human αvβ3 integrin; N-methyl tryptophan derivatives vs 12 a–c),selectivity towards the integrin αVβ3 (over α5β1) (human αvβ3 integrin; ratio of IC50 α5β1 / αVβ3)
"N=C(N)NCCC[C@@H]1NC(=O)CCCCCN2c3ccccc3Sc3cc(ccc32)-c2cccc3c(c[nH]c23)C[C@@H](C(N)=O)NC(=O)[C@H](CC(=O)O)NC(=O)CNC1=O [12 a, c(RGDW(7‐3Ptz^2))]",330 ± 40 nM,,,
"N=C(N)NCCC[C@@H]1NC(=O)CCCCCN2c3ccccc3Sc3cc(ccc32)-c2cccc3c(c[nH]c23)C[C@H](C(N)=O)NC(=O)[C@H](CC(=O)O)NC(=O)CNC1=O [12 b, c(RGDw(7‐3Ptz^2))]",600 ± 110 nM,5680 ± 1280 nM,,
"N=C(N)NCCC[C@@H]1NC(=O)CN2c3ccccc3Sc3cc(ccc32)-c2cccc3c(c[nH]c23)C[C@@H](C(N)=O)NC(=O)[C@H](CC(=O)O)NC(=O)CNC1=O [12 c, c(RGDW(7‐3Ptz^1))]",310 ± 80 nM,2220 ± 1040 nM,,
"N=C(N)NCCC[C@@H]1NC(=O)CN2c3ccccc3Sc3cc(ccc32)-c2cccc3c(c[nH]c23)C[C@H](C(N)=O)NC(=O)[C@H](CC(=O)O)NC(=O)CNC1=O [12 d, c(RGDw(7‐3Ptz^1))]",780 ± 170 nM,> 10000 nM,,
"CN1C(=O)[C@H](CC(=O)O)NC(=O)CNC(=O)[C@H](CCCNC(=N)N)NC(=O)CCCCCN2c3ccccc3Sc3cc(ccc32)-c2cccc3c(c[nH]c23)C[C@H]1C(N)=O [12 e, c(RGD(NMe)W(7‐3Ptz^2))]",6550 ± 760 nM,,15–20 fold,
"CN1C(=O)[C@H](CC(=O)O)NC(=O)CNC(=O)[C@H](CCCNC(=N)N)NC(=O)CN2c3ccccc3Sc3cc(ccc32)-c2cccc3c(c[nH]c23)C[C@H]1C(N)=O [12 f, c(RGD(NMe)W(7‐3Ptz^1))]",4520 ± 530 nM,> 10000 nM,,
"N#CC(C#N)=Cc1ccc2c(c1)Sc1cc3ccc1N2CCCCCC(=O)N[C@@H](CCCNC(=N)N)C(=O)NCC(=O)N[C@@H](CC(=O)O)C(=O)N[C@@H](C(N)=O)Cc1c[nH]c2c-3cccc12 [12 g, c(RGDw(7‐3Ptz^2(CH(CN)2))]",961 ± 50 nM,> 10000 nM,,
c(RGDW(7‐3Ptz^1(O))) [12 h],,,,≈ 110 fold
